Measurements published in patent US12440528B2, “Methods of treating ovarian cancer with hemp extract” (Ecofibre USA Inc., priority 2021, dated 2025).
≈ marks a conversion by molar mass, not a printed value. Where two headings read alike, the source gives them in different places.

Experiments:
[1] = system: patient derived organoids; assay type: cell-based, human; settings: for % Cell Death: organoid cell death; for response of the patient's organoid: organoid of the chemoresistant endometrial cancer patient
Source text: A few of the above drug products, as well as additional drugs were tried for response to patient derived organoids.

[2] = chronic use, humans; cited from earlier work
[3] = target: P-glycoprotein (Homo sapiens, UniProt P08183); settings: in vitro; cited from earlier work
P-glycoprotein, sequence (P08183 whole entry): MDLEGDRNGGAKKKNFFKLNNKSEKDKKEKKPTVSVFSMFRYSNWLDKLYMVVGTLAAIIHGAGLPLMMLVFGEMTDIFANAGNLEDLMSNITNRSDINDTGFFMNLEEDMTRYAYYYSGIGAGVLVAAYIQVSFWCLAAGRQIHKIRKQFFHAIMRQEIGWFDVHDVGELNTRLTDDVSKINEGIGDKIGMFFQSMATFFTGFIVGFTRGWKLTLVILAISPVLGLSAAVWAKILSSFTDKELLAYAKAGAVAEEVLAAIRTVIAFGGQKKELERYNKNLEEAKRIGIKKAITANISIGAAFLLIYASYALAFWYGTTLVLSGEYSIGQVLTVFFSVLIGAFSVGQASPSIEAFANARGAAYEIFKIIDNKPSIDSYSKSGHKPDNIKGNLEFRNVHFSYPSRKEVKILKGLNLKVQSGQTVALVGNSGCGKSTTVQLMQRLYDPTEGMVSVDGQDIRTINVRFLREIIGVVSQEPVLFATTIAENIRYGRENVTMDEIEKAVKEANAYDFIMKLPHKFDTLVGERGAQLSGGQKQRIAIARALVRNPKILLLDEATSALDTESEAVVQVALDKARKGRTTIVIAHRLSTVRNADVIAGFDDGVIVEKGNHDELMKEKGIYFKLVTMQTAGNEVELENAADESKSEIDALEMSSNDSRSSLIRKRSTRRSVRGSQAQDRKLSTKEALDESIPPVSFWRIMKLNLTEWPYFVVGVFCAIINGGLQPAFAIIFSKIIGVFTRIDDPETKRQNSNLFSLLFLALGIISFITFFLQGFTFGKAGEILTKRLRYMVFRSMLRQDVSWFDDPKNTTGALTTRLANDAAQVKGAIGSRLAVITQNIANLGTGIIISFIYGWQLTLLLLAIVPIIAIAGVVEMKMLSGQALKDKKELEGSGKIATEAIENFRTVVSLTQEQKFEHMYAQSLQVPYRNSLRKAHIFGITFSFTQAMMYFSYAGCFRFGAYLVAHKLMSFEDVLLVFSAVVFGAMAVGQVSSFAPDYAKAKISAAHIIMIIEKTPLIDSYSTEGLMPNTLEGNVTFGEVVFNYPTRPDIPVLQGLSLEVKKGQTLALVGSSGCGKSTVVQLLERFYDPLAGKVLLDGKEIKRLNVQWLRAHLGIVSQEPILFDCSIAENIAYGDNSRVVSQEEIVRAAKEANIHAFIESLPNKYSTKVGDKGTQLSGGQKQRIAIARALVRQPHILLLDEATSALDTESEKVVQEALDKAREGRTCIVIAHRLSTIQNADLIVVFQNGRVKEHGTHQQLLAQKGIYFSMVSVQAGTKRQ

[4] = cited from earlier work
[5] = system: patient derived chemosensitive and chemoresistant ovarian cancer organoids; test: Four Cannabis extracts on newly obtained ovarian cancer organoids, viability; assay type: cell-based, human
Experimental: Applicant then tested several different Cannabis extracts at varying concentrations on newly obtained patient derived chemosensitive and chemoresistant ovarian cancer organoids. […] Here, the BSHE continued to work at virtually the same level as prior tests, even though these organoids were generated from different patients than all prior tests. […] However, what remains constant is that at or about 10 μg/mL, virtually all patient derived organoid samples begin to or reach zero viability.

[6] = system: patient derived endometrial cancer organoids; test: Carboplatin alone or with Cannabis extract, endometrial cancer organoids; assay type: cell-based, human
Source text: To determine if this premise is conserved over different chemotherapeutic agents, Applicant repeated the tests replacing paclitaxel with carboplatin toward a related gynecological cancer cell, endometrial cancer cells. The surprising findings with paclitaxel were further confirmed by testing the impacts of carboplatin alone or carboplatin with a Cannabis extract.
Finally, with a dose of 250 μm/mL carboplatin, a 2.5× in the dose from the […] test, all of the combined therapeutics with carboplatin and Cannabis extract are below 10% viability, while the carboplatin alone remains at above 30%.

[7] = system: cancer organoid; test: Effect of pH of the Cannabis extract on organoid viability; assay type: cell-based, human; settings: pH 8
Experimental: A further interesting observation was determined by the impacts of pH on the efficacy of the Cannabis extract on organoid data. […] In each case, the control vehicle, buffered to the same pH was ineffective in killing the cells at all, and thus was not depicted. […] However, pH of 12, and certainly of 14 are highly corrosive, alkaline concentrations and are not suitable for therapeutic use.
Accordingly, when providing the Cannabis extract for therapeutic administration, […] yields an unexpected increase in efficacy.

[8] = system: patient derived organoids (PD3D Cell Culture); test: Calculated IC50 in PD3D cell culture of the patient derived organoids; assay type: cell-based, human
[9] = system: chemoresistant ovarian cancer organoid
Experimental: To culture patient-derived organoids, 2-3×10^3 cells were plated in a pre-warmed (37° C.) 96-well plate in 10 mL of Matrigel (5%FBS AD+++ medium) per well. Individual patient cell organoid was cultured separately in different plates. Individual patient cells were handled separately to reduce the chance of cross-contamination. After mixing cells with Matrigel, 10 mL droplets were placed in wells and put in a 37° C. incubator with 5% CO2 for 30 minutes. Upon solidification of the Matrigel droplet with cells inside, the plate was placed inside a sterile hood and immersed the Matrigel droplet in 200 μL of organoid growth media. Cells were allowed to grow into mature organoids for 14 days. […] All treatments were done in triplicate, including vehicle-only controls (Dimethyl sulfoxide in culture medium at the highest concentration used for drug treatments).
To assess the cell viability in organoids after treatments, CellTiter-Glo® Luminescent Assay (Promega #G7572) was used. In brief, on day 14 of organoid culture, the matrigel droplet in each well with organoid inside was immersed in 100 μL of fresh growth media and 100 μL of CellTiter-Glo® reagent following the manufacturer's guideline. Blank wells containing only media and CellTiter Glo® reagent (no cells) were also included in each plate. Then the plates were put on a shaker @ 110 rpm at room temperature for 5 minutes to induce cell lysis, followed by 25 minutes at room temperature to stabilize the luminescent signal. Each step after adding the CellTiter Glo® reagent was performed in the dark. Luminescence was measured on a FLUOstar OPTIMA plate reader (BMG Lab technologies, Offenburg, Germany). Analysis was performed by normalizing treatment values to the vehicle control and plotting them as a percentage of the vehicle control. Drug IC50 values were determined by inhibitor vs normalized response-variable slope using least squares regression in Graphpad Prism 9.

[10] = system: patient derived endometrial cancer cells; assay type: in vivo, mice; settings: paclitaxel alone 10 mg/kg (30.007 mg/m^2), 21 days
Experimental: Human patient cells from endometrial cancer were injected subcutaneously into female NOD/SCID gamma mice after resuspending in 100 μL solution. […] All treatment group mice were kept alive for up to 10 weeks after drug injection or until the tumor volume grows bigger than 2500 mm^3.

[11] = system: chemosensitive ovarian cancer cells, derived from ascites cells; settings: for viability: human, 14 days

Calculated IC50 PD3D Cell Culture [8]	Compound	% Cell Death [1]	other results
	O=C1[O][Pt]2([NH][C@@H]3CCCC[C@H]3[NH]2)[O]C1=O [oxaliplatin]	No Response	
	C=C(C)[C@@H]1CCC(C)=C[C@H]1c1c(O)cc(CCCCC)cc1O [CBD, cannabidiol]		doses established as well tolerated [2]: up to 1,500 mg/day; inhibition of P-glycoprotein-mediated drug transport [3]: significantly inhibits; peak plasma concentrations of CBD ([4]; coadministration of rifampicin (a CYP3A4 inducer)): significantly reduced; peak plasma drug concentrations ([4]; coadministration of the CYP3A4 inhibitor ketoconazole): nearly doubled; time of maximum plasma concentration ([4]; oral-mucosal or sublingual delivery): 1.6 h; time of maximum plasma concentration, delayed ([4]; orally delivered, some individuals): up to 6 hours; time of maximum plasma concentration ([4]; orally delivered): 2.5 to 5 h; response of the patient's organoid [1]: significant response
	C=C(C)[C@@H]1CCC(C)=C[C@H]1c1c(O)cc(CCCCC)cc1O [CBD isolate, cannabidiol]		viability at 15 µg/mL ([5]; Homo sapiens, 15 μg/mL, all samples): 0%; viability at 20 µg/mL ([5]; Homo sapiens, 20 μg/mL, all samples): 0%; IC50 ([6]; Homo sapiens, extract alone): 3 µg/mL (≈ 9.54 µM); viability ([6]; carboplatin 50 μm/mL with IC50 amount of extract): ~37%; improvement in viability on adding the extract ([6]; carboplatin 100 μm/mL plus IC50 amount of extract): 32%; killing of the organoids compared with native pH [7]: virtually no change
Not Reached	COc1cc2nccc(Oc3ccc(NC(=O)NC4CC4)c(Cl)c3)c2cc1C(N)=O [Lenvatinib]		
Not Reached	C[C@@H](Oc1cc(-c2cnn(C3CCNCC3)c2)cnc1N)c1c(Cl)ccc(F)c1Cl [Crizotinib]		
Not Reached	O=C(c1ccc(F)c(F)c1Nc1ccc(I)cc1F)N1CC(O)([C@@H]2CCCCN2)C1 [Cobimetinib]		
	Cn1nnc2c(C(N)=O)ncn2c1=O [Temozolomide]	40%	
	COc1cccc2c1C(=O)c1c(O)c3c(c(O)c1C2=O)C[C@@](O)(C(=O)CO)C[C@@H]3O[C@H]1C[C@H](N)[C@@H](O)[C@H](C)O1 [epirubicin]	No Response	
	N.N.[Cl][Pt][Cl] [Cisplatin]	36%	
	Bleomycin	53%	
	CO[C@@]12[C@H](COC(N)=O)C3=C(C(=O)C(C)=C(N)C3=O)N1C[C@@H]1N[C@@H]12 [mitomycin]	No Response	
	CCC1=C[C@@H]2CN(C1)Cc1c([nH]c3ccccc13)[C@@](C(=O)OC)(c1cc3c(cc1OC)N(C)[C@H]1[C@@](O)(C(=O)OC)[C@H](OC(C)=O)[C@]4(CC)C=CCN5CC[C@]31[C@@H]54)C2 [Vinorelbine]	45%	
	N.N.O=C([O-])C1(C(=O)[O-])CCC1.[Pt+2] [Carboplatin]	30%	viability ([6]; carboplatin alone 50 μg/mL): about 50%; viability ([6]; carboplatin alone 100 μg/mL): about 50%; total drop in viability on increasing the dose by 5× ([6]; carboplatin alone 50 to 250 μm/mL): about 17%
	gemcitabine/capecitabine [GemCap]		response of the patient's organoid [1]: partial response
Not Reached	CCN(CCO)CCCC(C)Nc1ccnc2cc(Cl)ccc12 (centres unmarked) [Hydroxychloroquine]		
	CN(Cc1cnc2nc(N)nc(N)c2n1)c1ccc(C(=O)N[C@@H](CCC(=O)O)C(=O)O)cc1 [methotrexate]	No Response	
Not Reached	Nc1cccc2c1C(=O)N(C1CCC(=O)NC1=O)C2=O (centres unmarked) [Pomalidomide]		
Not Reached	N[C@@H](CCC(=O)N[C@@H](CS)C(=O)NCC(=O)O)C(=O)O [Glutathione]		
Not Reached	O=C1O[C@H]([C@@H](O)CO)C(O)=C1O [Ascorbic Acid]		
	O=P1(N(CCCl)CCCl)NCCCO1 (centres unmarked) [Cyclosphosphamide]	32%	

Calculated IC50 PD3D Cell Culture [8]	Compound	% Cell Death [1]	other results
	CN(C)/N=N/c1[nH]cnc1C(N)=O [Dacarbazine]	32%	
Not Reached	CN(C)C(=N)N=C(N)N [Metformin]		
	O=P1(NCCCl)OCCCN1CCCl (centres unmarked) [ifosfamide]	No Response	
	CC(=O)O[C@@]12CO[C@@H]1C[C@H](O)[C@@]1(C)C(=O)[C@H](O)C3=C(C)[C@@H](OC(=O)[C@H](O)[C@@H](NC(=O)OC(C)(C)C)c4ccccc4)C[C@@](O)([C@@H](OC(=O)c4ccccc4)[C@H]21)C3(C)C [Docetaxel]	No Response	
	O=C1c2c(O)ccc(O)c2C(=O)c2c(NCCNCCO)ccc(NCCNCCO)c21 [Mitoxantrone]	50%	
	5-Fluorouaracil/Capecitabine	61%	
Not Reached	O=C(c1cc(Cc2n[nH]c(=O)c3ccccc23)ccc1F)N1CCN(C(=O)C2CC2)CC1 [Olaparib]		
	C=C(C)[C@@H]1CCC(C)=C[C@H]1c1c(O)cc(CCCCC)c(C(=O)O)c1O [CBDA, cannabidiolic acid]		viability ([5]; 50 μg/mL): nearing zero viability
	CCc1c2c(nc3ccc(OC(=O)N4CCC(N5CCCCC5)CC4)cc13)-c1cc3c(c(=O)n1C2)COC(=O)[C@]3(O)CC [Irinotecan]	51%	
	COc1cccc2c1C(=O)c1c(O)c3c(c(O)c1C2=O)C[C@@](O)(C(=O)CO)C[C@@H]3O[C@H]1C[C@H](N)[C@H](O)[C@H](C)O1 [Doxorubicin]	39%	
	C=C1C[C@@H]2CC[C@@]34C[C@H]5O[C@H]6[C@@H](O3)[C@H]3O[C@H](CC[C@@H]3O[C@H]6[C@H]5O4)CC(=O)C[C@@H]3[C@@H](OC)[C@@H](C[C@H](O)CN)O[C@H]3C[C@H]3O[C@@H](CC[C@@H]1O2)C[C@@H](C)C3=C [eribulin]	No Response	
	CC(=O)O[C@H]1C(=O)[C@@]2(C)[C@H]([C@H](OC(=O)c3ccccc3)[C@]3(O)C[C@H](OC(=O)[C@H](O)[C@@H](NC(=O)c4ccccc4)c4ccccc4)C(C)=C1C3(C)C)[C@]1(OC(C)=O)CO[C@@H]1C[C@@H]2O [Paclitaxel]	39%	viability ([9]; paclitaxel alone 4 nm/mL): 45%; change in viability on adding 5× more paclitaxel ([9]; paclitaxel alone 4 to 20 nm/mL): about 3%; viability ([9]; paclitaxel alone, 5× more (20 nm/mL)): 42%; effect on tumor volume / tumor growth [10]: ineffective in reducing tumor growth; effect on tumor volume / tumor growth ([10]; listed as paclitaxel): in essence ineffective; viability ([11]; 4 nm/mL): about 89%; viability ([11]; 20 nm/mL): about 57%; change in viability on increasing the dose by 5× ([11]; paclitaxel alone 4 to 20 nm/mL): 32%; overall kill rate ([11]; paclitaxel alone, highest dose (20 nm/mL)): less than 50%
	CO[C@H]1C(=O)[C@]2(C)[C@@H](OC)C[C@H]3OC[C@@]3(OC(C)=O)[C@H]2[C@H](OC(=O)c2ccccc2)[C@]2(O)C[C@H](OC(=O)[C@H](O)[C@@H](NC(=O)OC(C)(C)C)c3ccccc3)C(C)=C1C2(C)C [Cabazitaxel]	37%	
	Nc1ccn([C@@H]2O[C@H](CO)[C@@H](O)C2(F)F)c(=O)n1 [Gemcitabine]	56%	
	N[C@@H](Cc1ccc(N(CCCl)CCCl)cc1)C(=O)O [Melphalan]	40%	
	CC[C@]1(O)C[C@H]2CN(CCc3c([nH]c4ccccc34)[C@@](C(=O)OC)(c3cc4c(cc3OC)N(C=O)[C@H]3[C@@](O)(C(=O)OC)[C@H](OC(C)=O)[C@]5(CC)C=CCN6CC[C@]43[C@@H]65)C2)C1 [vincristine]	No Response	
	COc1cc2c(cc1O)CCN[C@]21CS[C@@H]2c3c(OC(C)=O)c(C)c4c(c3[C@H](COC1=O)N1[C@@H]2[C@H]2c3c(cc(C)c(OC)c3O)C[C@@H]([C@@H]1O)N2C)OCO4 [Trabectedine]	32%	
	COc1cc([C@@H]2c3cc4c(cc3[C@@H](O[C@@H]3O[C@@H]5CO[C@@H](C)O[C@H]5[C@H](O)[C@H]3O)[C@H]3COC(=O)[C@H]23)OCO4)cc(OC)c1O [Etoposide]	33%	
	CC[C@]1(O)C[C@@H]2CN(CCc3c([nH]c4ccccc34)[C@@](C(=O)OC)(c3cc4c(cc3OC)N(C)[C@H]3[C@@](O)(C(=O)OC)[C@H](OC(C)=O)[C@]5(CC)C=CCN6CC[C@]43[C@@H]65)C2)C1 [Vinblastine]	38%	

Compound	Calculated IC50 PD3D Cell Culture [8]	% Cell Death [1]	other results
O=C(O)C(Cl)Cl [Dichloracetate]	Not Reached		
CCN(CC)CCNC(=O)c1c(C)[nH]c(/C=C2\C(=O)Nc3ccc(F)cc32)c1C [Sunitnib]	Not Reached		
Nc1nc2[nH]cc(CCc3ccc(C(=O)N[C@@H](CCC(=O)O)C(=O)O)cc3)c2c(=O)[nH]1 [Pemetrexed]	Not Reached	No Response	
Bevacizumab	Not Reached		
